# Assay results taken from PubChem BioAssay (NCI).
#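 Test compounds were applied to cells in 96-well plates for 48 hours at 5 doses. GI50: concentration for 50% inhibition of growth. At the TGI there is no net growth.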
# How the values were obtained:
# Assay in all cases: DTP human tumour cell line panel, 48 h
# COLO 205 colon = system: COLO 205 colon
# HL-60(TB) leukemia = system: HL-60(TB) leukemia
# SK-OV-3 ovarian = system: SK-OV-3 ovarian
# UO-31 renal = system: UO-31 renal
# CCRF-CEM leukemia = system: CCRF-CEM leukemia
# NCI-H226 lung = system: NCI-H226 lung
# MALME-3M melanoma = system: MALME-3M melanoma
# SNB-19 CNS = system: SNB-19 CNS
# A498 renal = system: A498 renal
# UACC-257 melanoma = system: UACC-257 melanoma
# NCI-H23 lung = system: NCI-H23 lung
# SR leukemia = system: SR leukemia
# RPMI-8226 leukemia = system: RPMI-8226 leukemia
# SK-MEL-2 melanoma = system: SK-MEL-2 melanoma
# SF-539 CNS = system: SF-539 CNS
# NCI/ADR-RES ovarian = system: NCI/ADR-RES ovarian
# HCC-2998 colon = system: HCC-2998 colon
# SF-268 CNS = system: SF-268 CNS
# MDA-MB-231 breast = system: MDA-MB-231 breast
# ACHN renal = system: ACHN renal
# MCF7 breast = system: MCF7 breast
# HOP-92 NSCLC = system: HOP-92 NSCLC
# NCI-H522 lung = system: NCI-H522 lung
# A549 NSCLC = system: A549 NSCLC
# SK-MEL-5 melanoma = system: SK-MEL-5 melanoma
# SW-620 colon = system: SW-620 colon
# RXF 393 renal = system: RXF 393 renal
# MOLT-4 leukemia = system: MOLT-4 leukemia
# M14 melanoma = system: M14 melanoma
# SK-MEL-28 melanoma = system: SK-MEL-28 melanoma
# K-562 leukemia = system: K-562 leukemia
# HCT-15 colon = system: HCT-15 colon
# PC-3 prostate = system: PC-3 prostate
# SN12C renal = system: SN12C renal
# IGROV1 ovarian = system: IGROV1 ovarian
# OVCAR-5 ovarian = system: OVCAR-5 ovarian
# KM12 colon = system: KM12 colon
# SNB-75 CNS = system: SNB-75 CNS
# TK-10 renal = system: TK-10 renal
# OVCAR-3 ovarian = system: OVCAR-3 ovarian
# HT29 colon = system: HT29 colon
# EKVX NSCLC = system: EKVX NSCLC
# HS 578T breast = system: HS 578T breast
# DU-145 prostate = system: DU-145 prostate
# T-47D breast = system: T-47D breast
# CAKI-1 renal = system: CAKI-1 renal
# U251 CNS = system: U251 CNS
# HCT-116 colon = system: HCT-116 colon
# NCI-H460 lung = system: NCI-H460 lung
# HOP-62 NSCLC = system: HOP-62 NSCLC
# LOX IMVI melanoma = system: LOX IMVI melanoma
# BT-549 breast = system: BT-549 breast
# 786-0 renal = system: 786-0 renal
# OVCAR-4 ovarian = system: OVCAR-4 ovarian
# SF-295 CNS = system: SF-295 CNS
# MDA-MB-435 = system: MDA-MB-435
# UACC-62 melanoma = system: UACC-62 melanoma
smiles,measurement,setting,value
Oc1[nH]c2ccccc2c1/C=c1/cc2c(c(-c3ccc(F)cc3)n1)=Nc1ccccc1-2,GI50,COLO 205 colon,0.316 µM
same,TGI,COLO 205 colon,1.27 µM
same,GI50,HL-60(TB) leukemia,0.282 µM
same,TGI,HL-60(TB) leukemia,0.994 µM
same,GI50,SK-OV-3 ovarian,0.848 µM
same,TGI,SK-OV-3 ovarian,3.15 µM
same,GI50,UO-31 renal,0.353 µM
same,TGI,UO-31 renal,2.21 µM
same,GI50,CCRF-CEM leukemia,0.648 µM
same,TGI,CCRF-CEM leukemia,3.25 µM
same,GI50,NCI-H226 lung,1.52 µM
same,TGI,NCI-H226 lung,10.7 µM
same,GI50,MALME-3M melanoma,0.843 µM
same,TGI,MALME-3M melanoma,2.26 µM
same,GI50,SNB-19 CNS,1.43 µM
same,TGI,SNB-19 CNS,32.6 µM
same,GI50,A498 renal,0.309 µM
same,TGI,A498 renal,1.85 µM
same,GI50,UACC-257 melanoma,0.714 µM
same,TGI,UACC-257 melanoma,2.88 µM
same,GI50,NCI-H23 lung,1.16 µM
same,TGI,NCI-H23 lung,3.11 µM
same,GI50,SR leukemia,0.306 µM
same,TGI,SR leukemia,2.49 µM
same,GI50,RPMI-8226 leukemia,0.406 µM
same,TGI,RPMI-8226 leukemia,2.03 µM
same,GI50,SK-MEL-2 melanoma,0.327 µM
same,TGI,SK-MEL-2 melanoma,1.34 µM
same,GI50,SF-539 CNS,0.477 µM
same,TGI,SF-539 CNS,1.81 µM
same,GI50,NCI/ADR-RES ovarian,0.267 µM
same,TGI,NCI/ADR-RES ovarian,1.25 µM
same,GI50,HCC-2998 colon,0.726 µM
same,TGI,HCC-2998 colon,2.16 µM
same,GI50,SF-268 CNS,1.01 µM
same,TGI,SF-268 CNS,9.26 µM
same,GI50,MDA-MB-231 breast,0.609 µM
same,TGI,MDA-MB-231 breast,2.39 µM
same,GI50,ACHN renal,1.12 µM
same,TGI,ACHN renal,2.54 µM
same,GI50,MCF7 breast,0.817 µM
same,TGI,MCF7 breast,2.57 µM
same,GI50,HOP-92 NSCLC,0.162 µM
same,TGI,HOP-92 NSCLC,0.981 µM
same,GI50,NCI-H522 lung,0.218 µM
same,TGI,NCI-H522 lung,0.99 µM
same,GI50,A549 NSCLC,0.815 µM
same,TGI,A549 NSCLC,2.28 µM
same,GI50,SK-MEL-5 melanoma,1.41 µM
same,TGI,SK-MEL-5 melanoma,3.06 µM
same,GI50,SW-620 colon,0.438 µM
same,TGI,SW-620 colon,2.43 µM
same,GI50,RXF 393 renal,0.634 µM
same,TGI,RXF 393 renal,1.96 µM
same,GI50,MOLT-4 leukemia,2.17 µM
same,TGI,MOLT-4 leukemia,5.41 µM
same,GI50,M14 melanoma,0.315 µM
same,TGI,M14 melanoma,1.41 µM
same,GI50,SK-MEL-28 melanoma,0.777 µM
same,TGI,SK-MEL-28 melanoma,2.47 µM
same,GI50,K-562 leukemia,0.435 µM
same,TGI,K-562 leukemia,3.55 µM
same,GI50,HCT-15 colon,0.735 µM
same,TGI,HCT-15 colon,2.43 µM
same,GI50,PC-3 prostate,0.317 µM
same,TGI,PC-3 prostate,1.88 µM
same,GI50,SN12C renal,1.38 µM
same,TGI,SN12C renal,3.88 µM
same,GI50,IGROV1 ovarian,0.554 µM
same,TGI,IGROV1 ovarian,1.93 µM
same,GI50,OVCAR-5 ovarian,1.36 µM
same,TGI,OVCAR-5 ovarian,4.39 µM
same,GI50,KM12 colon,0.363 µM
same,TGI,KM12 colon,1.87 µM
same,GI50,SNB-75 CNS,0.227 µM
same,TGI,SNB-75 CNS,1.27 µM
same,GI50,TK-10 renal,1.44 µM
same,TGI,TK-10 renal,3.71 µM
same,GI50,OVCAR-3 ovarian,0.233 µM
same,TGI,OVCAR-3 ovarian,0.591 µM
same,GI50,HT29 colon,0.384 µM
same,TGI,HT29 colon,1.43 µM
same,GI50,EKVX NSCLC,3.01 µM
same,TGI,EKVX NSCLC,72.7 µM
same,GI50,HS 578T breast,0.528 µM
same,TGI,HS 578T breast,3.28 µM
same,GI50,DU-145 prostate,0.422 µM
same,TGI,DU-145 prostate,2.03 µM
same,GI50,T-47D breast,0.501 µM
same,TGI,T-47D breast,2.13 µM
same,GI50,CAKI-1 renal,1.29 µM
same,TGI,CAKI-1 renal,5.05 µM
same,GI50,U251 CNS,0.94 µM
same,TGI,U251 CNS,2.17 µM
same,GI50,HCT-116 colon,1.01 µM
same,TGI,HCT-116 colon,2.24 µM
COc1ccc2oc(=O)c(-c3csc(C)n3)cc2c1,TGI,NCI-H460 lung,> 100 µM
same,TGI,COLO 205 colon,> 100 µM
same,TGI,HL-60(TB) leukemia,> 100 µM
same,TGI,SK-OV-3 ovarian,87.3 µM
same,TGI,UO-31 renal,> 100 µM
same,TGI,CCRF-CEM leukemia,> 100 µM
same,TGI,NCI-H226 lung,89.1 µM
same,TGI,SNB-19 CNS,> 100 µM
same,TGI,UACC-257 melanoma,> 100 µM
same,TGI,HOP-62 NSCLC,84 µM
same,TGI,SR leukemia,> 100 µM
same,TGI,LOX IMVI melanoma,> 100 µM
same,TGI,RPMI-8226 leukemia,> 100 µM
same,TGI,SK-MEL-2 melanoma,> 100 µM
same,TGI,SF-539 CNS,57 µM
same,TGI,BT-549 breast,29.2 µM
same,TGI,HCC-2998 colon,> 100 µM
same,TGI,SF-268 CNS,50.3 µM
same,TGI,MDA-MB-231 breast,68 µM
same,TGI,ACHN renal,> 100 µM
same,TGI,MCF7 breast,> 100 µM
same,TGI,HOP-92 NSCLC,41.2 µM
same,TGI,A549 NSCLC,> 100 µM
same,TGI,SK-MEL-5 melanoma,> 100 µM
same,TGI,SW-620 colon,> 100 µM
same,TGI,RXF 393 renal,> 100 µM
same,TGI,MOLT-4 leukemia,> 100 µM
same,TGI,M14 melanoma,> 100 µM
same,TGI,786-0 renal,> 100 µM
same,TGI,SK-MEL-28 melanoma,> 100 µM
same,TGI,K-562 leukemia,> 100 µM
same,TGI,HCT-15 colon,> 100 µM
same,TGI,OVCAR-4 ovarian,> 100 µM
same,TGI,PC-3 prostate,> 100 µM
same,TGI,SN12C renal,> 100 µM
same,TGI,IGROV1 ovarian,> 100 µM
same,TGI,OVCAR-5 ovarian,> 100 µM
same,TGI,KM12 colon,> 100 µM
same,TGI,SNB-75 CNS,55.6 µM
same,TGI,TK-10 renal,64.7 µM
same,TGI,HT29 colon,> 100 µM
same,TGI,SF-295 CNS,40 µM
same,TGI,EKVX NSCLC,> 100 µM
same,TGI,HS 578T breast,79.3 µM
same,TGI,DU-145 prostate,> 100 µM
same,TGI,MDA-MB-435,> 100 µM
same,TGI,CAKI-1 renal,> 100 µM
same,TGI,UACC-62 melanoma,73.1 µM
same,TGI,U251 CNS,60.9 µM
same,TGI,HCT-116 colon,> 100 µM
C/C(=C\c1csc(C)n1)[C@@H]1C[C@@H]2O[C@@H]2CCC[C@H](C)[C@H](O)[C@@H](C)C(=O)C(C)(C)[C@@H](O)CC(=O)O1,TGI,NCI-H460 lung,> 100 µM
same,TGI,COLO 205 colon,0.0804 µM
same,TGI,HL-60(TB) leukemia,> 100 µM
same,TGI,SK-OV-3 ovarian,0.398 µM
same,TGI,CCRF-CEM leukemia,> 100 µM
same,TGI,SNB-19 CNS,> 100 µM
same,TGI,A498 renal,0.333 µM
same,TGI,UACC-257 melanoma,> 100 µM
same,TGI,SR leukemia,0.00609 µM
same,TGI,SF-539 CNS,< 0.0001 µM
same,TGI,BT-549 breast,> 100 µM
same,TGI,NCI/ADR-RES ovarian,0.000598 µM
same,TGI,HCC-2998 colon,< 0.0001 µM
same,TGI,SF-268 CNS,> 100 µM
same,TGI,ACHN renal,> 100 µM
same,TGI,MCF7 breast,0.349 µM
same,TGI,HOP-92 NSCLC,0.608 µM
same,TGI,NCI-H522 lung,< 0.0001 µM
same,TGI,A549 NSCLC,> 100 µM
same,TGI,SW-620 colon,18.7 µM
same,TGI,MOLT-4 leukemia,> 100 µM
same,TGI,786-0 renal,> 100 µM
same,GI50,OVCAR-4 ovarian,23 µM
same,TGI,OVCAR-4 ovarian,> 100 µM
same,TGI,PC-3 prostate,> 100 µM
same,TGI,IGROV1 ovarian,> 100 µM
same,TGI,KM12 colon,> 100 µM
same,TGI,SNB-75 CNS,< 0.0001 µM
same,TGI,TK-10 renal,> 100 µM
same,TGI,HT29 colon,0.000586 µM
same,TGI,SF-295 CNS,< 0.0001 µM
same,TGI,EKVX NSCLC,0.525 µM
same,TGI,DU-145 prostate,0.00464 µM
same,TGI,MDA-MB-435,< 0.0001 µM
same,TGI,T-47D breast,> 100 µM
same,TGI,HCT-116 colon,> 100 µM
